# Reference: PMC10600239, “Selective MCL-1 inhibitor ABBV-467 is efficacious in tumor models but is associated with cardiac troponin increases in patients” (Communications Medicine, 2023)
# Where “and” joins values, the source holds several entries; their conditions need not be identical. Identical values can stand only once.
# What was measured:
# MV4-11-Red.Fluc = experiment: Systemic MV4-11-Red.Fluc model (bioluminescence, total flux); assay type: in vivo, mouse; set-up: bioluminescence signal, individual mouse (ear tag), 10 min post: unit: p/s; settings: for bioluminescence signal, group Average, 10 min post / bioluminescence signal, individual mouse (ear tag), 10 min post: MV 4-11 red.fluc, A-1726694 q7dx3 IV, ABT-199 50mkd qdx21 PO
# Method: All animal studies were conducted in accordance with the guidelines approved by the Institutional Animal Care and Use Committees of AbbVie. The research protocol was approved by In Vivo Pharmacology at AbbVie prior to study initiation but was not publicly registered or disclosed. Female C.B-17 SCID-beige mice (AMO-1, OPM-2, NCI-H929, and OCI-AML2 xenografts) and female NSG mice (MV4-11-Red.Fluc systemic) were purchased from Charles River Laboratories (Wilmington, MA). Animals were housed in a light cycle-controlled room with HEPA filtration at 22 °C. Animals had nesting and climbing cage topper as the primary environmental enrichment. Animals were inoculated subcutaneously in the right flank with 5 × 10^6 (AMO-1, OPM-2, NCI-H929, and OCI-AML2) or intravenous (IV) with 5 × 10^6 (MV4-11-Red.Fluc). The inoculation volume (0.2 mL) comprised a 50:50 mixture of cells in growth media and Matrigel (BD Biosciences) for subcutaneous injections and 100% phosphate-buffered saline for IV administration. All cell lines used in this publication were authenticated using IDEXX for STR profiling as well as their IMPACT and human IMPACT panels for pathogen screening. Electronic calipers were used to measure the length and width of each tumor 2 to 3 times per week. Tumor volume was estimated by applying the following equation: volume = length × width^2/2. All groups remained blinded during measurements and dosing; only veterinary staff were aware of group identity. When tumors reached approximately 200 mm^3, mice were randomized by match and distributed into treatment and control groups. All xenograft trials were conducted using 5 to 10 mice per group, and all mice were ear tagged and monitored individually throughout the studies. Any animal with a tumor above 2000 mm^3 or 15% loss in body weight was euthanized and removed from the study. Tumor burden in the systemic MV4-11-Red.Fluc experiment was measured using an IVIS® spectrum from PerkinElmer by taking the total photon flux of the entire dorsal side of an individual mouse. Ten minutes prior to imaging, animals received intraperitoneally 0.2 mL of a 15-mg/mL solution of D-Luciferin (PerkinElmer, Catalog #122799) formulated in 100% phosphate-buffered saline. Animals were anesthetized using 3.5% isoflurane and maintained using 2%. Six days after inoculation, animals were imaged and randomized into vehicle and treatment groups at a total flux of ~1 × 10^8. A background control mouse that was tumor naive but received D-Luciferin was placed in the upper left corner of each image. The total flux from this animal was subtracted from the total flux of each animal present in the image. […]
# OCI-AML2 xenografts = experiment: OCI-AML2 xenograft efficacy (tumor volume, body weight); settings: venetoclax 25 mg/kg QD × 14, azacitidine 8 mg/kg Q7D × 3, or the combination of both
# Method: All animal studies were conducted in accordance with the guidelines approved by the Institutional Animal Care and Use Committees of AbbVie. The research protocol was approved by In Vivo Pharmacology at AbbVie prior to study initiation but was not publicly registered or disclosed. Female C.B-17 SCID-beige mice (AMO-1, OPM-2, NCI-H929, and OCI-AML2 xenografts) and female NSG mice (MV4-11-Red.Fluc systemic) were purchased from Charles River Laboratories (Wilmington, MA). Animals were housed in a light cycle-controlled room with HEPA filtration at 22 °C. Animals had nesting and climbing cage topper as the primary environmental enrichment. Animals were inoculated subcutaneously in the right flank with 5 × 10^6 (AMO-1, OPM-2, NCI-H929, and OCI-AML2) or intravenous (IV) with 5 × 10^6 (MV4-11-Red.Fluc). The inoculation volume (0.2 mL) comprised a 50:50 mixture of cells in growth media and Matrigel (BD Biosciences) for subcutaneous injections and 100% phosphate-buffered saline for IV administration. […] Electronic calipers were used to measure the length and width of each tumor 2 to 3 times per week. Tumor volume was estimated by applying the following equation: volume = length × width^2/2. All groups remained blinded during measurements and dosing; only veterinary staff were aware of group identity. When tumors reached approximately 200 mm^3, mice were randomized by match and distributed into treatment and control groups. All xenograft trials were conducted using 5 to 10 mice per group, and all mice were ear tagged and monitored individually throughout the studies.
# For combination studies, all compounds were administered within 30 min of each other.
# The tumor growth delay (TGD) percentage was determined as the percentage increase of the median time period for the treatment group to reach an arbitrary tumor volume of 1000 mm^3 relative to the vehicle control group. […] A power analysis was conducted using historical data to determine the number of animals required to yield significance of 0.05 at a 30% difference. There were no animals excluded. Data from experiments in vivo were analyzed using the student’s t-test for TGI values and the Mann–Whitney U test for TGD using Excel and GraphPad Prism. Fisher’s exact test was used to probe significance of differences in response frequency.
smiles,measurement,setting,value
CC1(C)CCC(CN2CCN(c3ccc(C(=O)NS(=O)(=O)c4ccc(NCC5CCOCC5)c([N+](=O)[O-])c4)c(Oc4cnc5[nH]ccc5c4)c3)CC2)=C(c2ccc(Cl)cc2)C1 [venetoclax],Total Flux minus ROI 1 (background),"MV4-11-Red.Fluc; Day55, individual ROI (one per animal), background-subtracted",5.08E+11 p/s
same,Total Flux,"MV4-11-Red.Fluc; Day55, individual ROI (one per animal, ROI 2-10), raw value",5.09E+11 p/s
same,"bioluminescence signal, group Average, 10 min post",MV4-11-Red.Fluc; day 6,7.85E+07
same,"bioluminescence signal, individual mouse (ear tag), 10 min post",MV4-11-Red.Fluc; day 6,6.21E+07 and 5.74E+07 and 4.57E+07 and 1.10E+08 and 9.71E+07 and 7.20E+07 and 8.40E+07 and 9.10E+07
same,"bioluminescence signal, group Average, 10 min post",MV4-11-Red.Fluc; day 10,5.02E+08
same,"bioluminescence signal, individual mouse (ear tag), 10 min post",MV4-11-Red.Fluc; day 10,3.02E+08 and 5.77E+08 and 2.27E+08 and 9.68E+08 and 7.24E+08 and 4.68E+08 and 3.50E+08 and 4.61E+08
same,"bioluminescence signal, group Average, 10 min post",MV4-11-Red.Fluc; day 13,1.09E+09
same,"bioluminescence signal, group Average, 10 min post",MV4-11-Red.Fluc; day 17,4.62E+09
same,"bioluminescence signal, individual mouse (ear tag), 10 min post",MV4-11-Red.Fluc; day 17,3.54E+09 and 4.80E+09 and 3.65E+09 and 6.19E+09 and 6.79E+09 and 2.67E+09 and 4.40E+09 and 4.67E+09
same,"bioluminescence signal, group Average, 10 min post",MV4-11-Red.Fluc; day 20,9.05E+09
same,"bioluminescence signal, individual mouse (ear tag), 10 min post",MV4-11-Red.Fluc; day 20,8.51E+09 and 1.38E+10 and 5.28E+09 and 1.23E+10 and 6.88E+09 and 6.58E+09 and 8.42E+09 and 1.02E+10
same,"bioluminescence signal, group Average, 10 min post",MV4-11-Red.Fluc; day 24,1.53E+10
same,"bioluminescence signal, individual mouse (ear tag), 10 min post",MV4-11-Red.Fluc; day 24,9.16E+09 and 1.73E+10 and 6.56E+09 and 2.31E+10 and 2.87E+10 and 1.24E+10 and 1.46E+10 and 1.55E+10
same,"bioluminescence signal, group Average, 10 min post",MV4-11-Red.Fluc; day 27,2.79E+10
same,"bioluminescence signal, individual mouse (ear tag), 10 min post",MV4-11-Red.Fluc; day 27,2.48E+10 and 2.02E+10 and 1.49E+10 and 4.29E+10 and 4.73E+10 and 2.09E+10 and 3.23E+10 and 1.93E+10
same,"bioluminescence signal, group Average, 10 min post",MV4-11-Red.Fluc; day 31,5.69E+10
same,"bioluminescence signal, group Average, 10 min post",MV4-11-Red.Fluc; day 34,1.07E+11
same,"bioluminescence signal, group Average, 10 min post",MV4-11-Red.Fluc; day 38,1.45E+11
same,"bioluminescence signal, group Average, 10 min post",MV4-11-Red.Fluc; day 41,3.10E+11
same,"bioluminescence signal, individual mouse (ear tag), 10 min post",MV4-11-Red.Fluc; day 41,2.65E+11 and 1.55E+11 and 4.70E+11 and 2.06E+11 and 5.84E+11
same,"bioluminescence signal, group Average, 10 min post",MV4-11-Red.Fluc; day 45,6.43E+11
same,"bioluminescence signal, individual mouse (ear tag), 10 min post",MV4-11-Red.Fluc; day 45,4.15E+11
same,"bioluminescence signal, group Average, 10 min post",MV4-11-Red.Fluc; day 48,2.37E+11
same,"bioluminescence signal, individual mouse (ear tag), 10 min post",MV4-11-Red.Fluc; day 48,4.43E+11
same,"bioluminescence signal, group Average, 10 min post",MV4-11-Red.Fluc; day 55,8.71E+11
same,effect on OCI-AML2 xenograft growth,OCI-AML2 xenografts,no meaningful effect
